Earlier results on four compounds are cited in patent US10753947B2, “Methods for screening voltage-gated proteins” (D.E. Shaw Research, LLC, priority 2012, dated 2020).

One data set concerns the target Kv1.1 (Homo sapiens, UniProt Q09470). Conditions: cited from earlier work.
Another data set addresses Kv1.5 (Homo sapiens, UniProt P22460). Particulars: Table 4; cited from earlier work.
In another data set the target is Kv1.4 (Homo sapiens, UniProt P22459). Conditions: Table 4; read-out: IC50 Others: Kv1.4; cited from earlier work.
Kv1.4, sequence (P22459 whole entry): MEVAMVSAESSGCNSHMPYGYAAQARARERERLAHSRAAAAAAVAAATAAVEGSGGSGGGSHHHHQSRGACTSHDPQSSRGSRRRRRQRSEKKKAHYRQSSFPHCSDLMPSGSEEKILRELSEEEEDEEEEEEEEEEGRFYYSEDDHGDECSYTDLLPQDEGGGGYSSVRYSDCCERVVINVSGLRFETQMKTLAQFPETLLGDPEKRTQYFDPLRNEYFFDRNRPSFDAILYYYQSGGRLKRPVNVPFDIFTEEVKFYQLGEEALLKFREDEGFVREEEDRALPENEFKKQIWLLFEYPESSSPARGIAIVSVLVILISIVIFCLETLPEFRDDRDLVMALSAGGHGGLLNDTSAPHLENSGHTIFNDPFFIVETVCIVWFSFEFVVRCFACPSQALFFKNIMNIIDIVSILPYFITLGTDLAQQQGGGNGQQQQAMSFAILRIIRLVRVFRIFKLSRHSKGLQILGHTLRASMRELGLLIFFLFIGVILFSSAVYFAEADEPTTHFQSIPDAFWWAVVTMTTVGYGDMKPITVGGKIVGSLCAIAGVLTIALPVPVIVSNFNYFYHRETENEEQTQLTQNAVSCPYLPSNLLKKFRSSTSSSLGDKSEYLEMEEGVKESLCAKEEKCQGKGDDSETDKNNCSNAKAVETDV
For another data set, the target named is Kv1.2 (Homo sapiens, UniProt P16389). Particulars: cited from earlier work.
Kv1.2, sequence (P16389 whole entry): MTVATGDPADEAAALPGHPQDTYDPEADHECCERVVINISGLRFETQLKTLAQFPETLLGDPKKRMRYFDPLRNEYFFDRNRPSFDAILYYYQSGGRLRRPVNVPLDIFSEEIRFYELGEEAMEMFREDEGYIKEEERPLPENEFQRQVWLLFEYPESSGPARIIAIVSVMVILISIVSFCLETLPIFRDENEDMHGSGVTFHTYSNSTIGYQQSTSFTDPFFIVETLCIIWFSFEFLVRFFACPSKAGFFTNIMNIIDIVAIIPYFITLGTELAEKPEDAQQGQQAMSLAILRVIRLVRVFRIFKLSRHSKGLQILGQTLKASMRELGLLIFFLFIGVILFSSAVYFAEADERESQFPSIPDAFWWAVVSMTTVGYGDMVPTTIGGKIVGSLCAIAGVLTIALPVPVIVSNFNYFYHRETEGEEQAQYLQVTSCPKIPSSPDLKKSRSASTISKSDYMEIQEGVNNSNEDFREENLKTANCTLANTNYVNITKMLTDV
For a further data set, the target named is KCa3.1 (Homo sapiens, UniProt O15554). Conditions: Table 4; cited from earlier work.
KCa3.1, sequence (O15554 whole entry): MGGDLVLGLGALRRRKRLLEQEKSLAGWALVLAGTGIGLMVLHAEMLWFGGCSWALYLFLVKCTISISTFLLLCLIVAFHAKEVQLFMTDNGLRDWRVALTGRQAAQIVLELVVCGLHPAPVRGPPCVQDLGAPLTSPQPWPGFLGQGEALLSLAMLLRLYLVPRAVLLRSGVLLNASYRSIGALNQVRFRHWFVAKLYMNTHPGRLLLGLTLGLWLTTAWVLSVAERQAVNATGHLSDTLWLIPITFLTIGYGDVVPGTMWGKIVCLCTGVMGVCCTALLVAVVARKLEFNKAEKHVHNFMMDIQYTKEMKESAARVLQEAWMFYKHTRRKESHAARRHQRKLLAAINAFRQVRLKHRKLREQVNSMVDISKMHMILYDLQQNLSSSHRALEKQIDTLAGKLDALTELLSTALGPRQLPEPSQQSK
Another data set concerns the target Kv1.6 (Homo sapiens, UniProt P17658). Particulars: Table 4; read-out: IC50 Others: Kv1.6; cited from earlier work.
Another data set has as its target T1, Kv2.1 (Homo sapiens, UniProt Q14721).
T1 sequence (Q14721 1-858): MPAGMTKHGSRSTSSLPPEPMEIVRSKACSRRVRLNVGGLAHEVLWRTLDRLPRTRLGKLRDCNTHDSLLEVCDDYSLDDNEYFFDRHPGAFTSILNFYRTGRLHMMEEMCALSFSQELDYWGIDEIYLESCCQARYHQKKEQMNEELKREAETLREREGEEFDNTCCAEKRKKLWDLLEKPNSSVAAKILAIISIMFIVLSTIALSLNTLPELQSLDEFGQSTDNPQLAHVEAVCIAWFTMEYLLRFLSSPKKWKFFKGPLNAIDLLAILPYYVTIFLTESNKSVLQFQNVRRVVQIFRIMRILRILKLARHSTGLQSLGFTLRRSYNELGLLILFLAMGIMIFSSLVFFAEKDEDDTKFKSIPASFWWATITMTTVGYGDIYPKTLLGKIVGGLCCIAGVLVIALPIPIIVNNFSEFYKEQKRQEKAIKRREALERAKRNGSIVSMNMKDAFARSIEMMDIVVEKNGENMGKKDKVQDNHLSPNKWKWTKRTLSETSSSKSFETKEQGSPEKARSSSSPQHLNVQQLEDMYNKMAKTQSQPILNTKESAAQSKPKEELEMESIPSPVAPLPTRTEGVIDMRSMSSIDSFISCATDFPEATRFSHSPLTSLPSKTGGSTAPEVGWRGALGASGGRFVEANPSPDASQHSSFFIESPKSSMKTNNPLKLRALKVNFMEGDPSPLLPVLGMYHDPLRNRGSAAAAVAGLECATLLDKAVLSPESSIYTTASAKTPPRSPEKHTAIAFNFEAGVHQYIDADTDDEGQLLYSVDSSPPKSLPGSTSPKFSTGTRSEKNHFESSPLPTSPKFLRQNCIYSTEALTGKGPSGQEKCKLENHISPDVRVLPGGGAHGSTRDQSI
Conditions: Table 5; read-out: IC50, channel Kv2.1; cited from earlier work.

A further data set addresses Kv1.3 (Homo sapiens, UniProt P22001). Particulars: cited from earlier work.
Another data set deals with Shaker (Drosophila melanogaster, UniProt P08510, DUP563-563/L584V/Q583H). Conditions: Table 5, cited from earlier work.
Shaker, sequence (P08510 with tags, fused parts or gaps DUP563-563/Q583H/L584V): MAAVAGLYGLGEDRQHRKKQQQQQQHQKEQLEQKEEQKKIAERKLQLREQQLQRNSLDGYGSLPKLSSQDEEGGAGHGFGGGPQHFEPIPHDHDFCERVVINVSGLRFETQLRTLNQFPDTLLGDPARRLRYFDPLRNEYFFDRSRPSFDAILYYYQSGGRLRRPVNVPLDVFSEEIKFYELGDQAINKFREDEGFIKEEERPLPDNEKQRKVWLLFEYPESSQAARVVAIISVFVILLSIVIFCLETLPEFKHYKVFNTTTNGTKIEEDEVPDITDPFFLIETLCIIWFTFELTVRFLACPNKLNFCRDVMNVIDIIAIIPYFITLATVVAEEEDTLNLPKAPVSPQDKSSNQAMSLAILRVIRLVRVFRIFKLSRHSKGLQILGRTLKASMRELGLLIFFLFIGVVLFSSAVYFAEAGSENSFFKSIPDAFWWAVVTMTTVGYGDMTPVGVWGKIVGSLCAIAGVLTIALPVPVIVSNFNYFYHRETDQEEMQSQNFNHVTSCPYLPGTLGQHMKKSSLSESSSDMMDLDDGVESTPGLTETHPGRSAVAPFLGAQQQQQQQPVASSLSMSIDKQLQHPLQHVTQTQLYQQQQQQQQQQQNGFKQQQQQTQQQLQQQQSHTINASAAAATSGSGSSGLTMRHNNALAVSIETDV
The target of data set [1] is T2, Kv2.1 T359S K360G A366D S367A I383M Y384T K386V (Homo sapiens, UniProt Q14721, A366D/I383M/K360G/K386V/S367A/T359S/Y384T).
T2 sequence (Q14721 1-858 T359S/K360G/A366D/S367A/I383M/Y384T/K386V): T1 sequence (Q14721 1-858) with T359S, K360G, A366D, S367A, I383M, Y384T, K386V
Conditions: Table 5; read-out: IC50, channel Kv2.1 T359S K360G A366D S367A I383M Y384T K386V; cited from earlier work.

[2] abbreviates: Table 5, read-out: IC50, channel Kv1.3.
Where [3] appears, read: Table 5, read-out: IC50, channel Kv1.1.
Setting [4] is: Table 5, read-out: IC50, channel Kv1.2.

Numbering of substitutions follows the chain as printed. pIC50: −log10 of the molar value. Read-outs that look alike come from different tables or passages of the source. Where only a bound is given, the exact number is not on record here.

Kv1.1, sequence (Q09470 whole entry): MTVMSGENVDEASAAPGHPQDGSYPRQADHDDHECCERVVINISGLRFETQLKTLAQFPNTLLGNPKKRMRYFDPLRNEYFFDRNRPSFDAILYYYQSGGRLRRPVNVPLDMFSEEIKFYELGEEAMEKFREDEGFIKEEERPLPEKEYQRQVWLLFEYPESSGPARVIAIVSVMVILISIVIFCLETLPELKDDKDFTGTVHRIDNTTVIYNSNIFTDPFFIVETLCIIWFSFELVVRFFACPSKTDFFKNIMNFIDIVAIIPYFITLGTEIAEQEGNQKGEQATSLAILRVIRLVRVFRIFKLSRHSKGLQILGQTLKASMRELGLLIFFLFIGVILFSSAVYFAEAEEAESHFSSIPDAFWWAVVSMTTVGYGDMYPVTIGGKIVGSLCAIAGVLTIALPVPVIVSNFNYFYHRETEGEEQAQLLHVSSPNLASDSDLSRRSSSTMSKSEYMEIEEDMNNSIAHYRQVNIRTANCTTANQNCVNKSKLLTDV
Kv1.3, sequence (P22001 whole entry): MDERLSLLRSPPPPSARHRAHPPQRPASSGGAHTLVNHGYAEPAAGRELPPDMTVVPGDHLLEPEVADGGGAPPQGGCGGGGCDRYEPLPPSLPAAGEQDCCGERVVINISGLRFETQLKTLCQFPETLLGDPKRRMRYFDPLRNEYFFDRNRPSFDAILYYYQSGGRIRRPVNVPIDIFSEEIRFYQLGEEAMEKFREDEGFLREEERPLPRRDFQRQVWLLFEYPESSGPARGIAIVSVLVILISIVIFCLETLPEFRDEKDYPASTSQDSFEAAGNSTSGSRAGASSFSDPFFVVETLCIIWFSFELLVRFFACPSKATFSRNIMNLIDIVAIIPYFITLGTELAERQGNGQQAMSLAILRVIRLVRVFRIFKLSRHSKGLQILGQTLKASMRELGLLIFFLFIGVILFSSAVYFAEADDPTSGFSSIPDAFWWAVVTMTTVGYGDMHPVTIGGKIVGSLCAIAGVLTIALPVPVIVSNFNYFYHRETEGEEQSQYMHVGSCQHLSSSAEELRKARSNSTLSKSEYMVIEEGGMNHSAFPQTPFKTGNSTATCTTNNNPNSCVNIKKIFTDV
Kv1.6, sequence (P17658 whole entry): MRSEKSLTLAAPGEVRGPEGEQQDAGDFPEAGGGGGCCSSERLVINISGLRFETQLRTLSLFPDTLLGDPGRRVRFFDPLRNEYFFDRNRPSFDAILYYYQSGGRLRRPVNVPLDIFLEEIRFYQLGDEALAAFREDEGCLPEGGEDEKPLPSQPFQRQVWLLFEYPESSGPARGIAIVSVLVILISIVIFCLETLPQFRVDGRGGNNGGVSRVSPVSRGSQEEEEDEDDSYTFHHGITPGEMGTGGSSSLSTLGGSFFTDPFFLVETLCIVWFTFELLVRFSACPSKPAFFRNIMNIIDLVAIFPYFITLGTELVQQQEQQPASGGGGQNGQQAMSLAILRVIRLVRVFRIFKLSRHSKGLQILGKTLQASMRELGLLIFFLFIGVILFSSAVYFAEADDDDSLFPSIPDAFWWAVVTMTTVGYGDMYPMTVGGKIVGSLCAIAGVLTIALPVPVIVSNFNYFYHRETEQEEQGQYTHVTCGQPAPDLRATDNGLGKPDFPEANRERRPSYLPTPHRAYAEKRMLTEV
Kv1.5, sequence (P22460 whole entry): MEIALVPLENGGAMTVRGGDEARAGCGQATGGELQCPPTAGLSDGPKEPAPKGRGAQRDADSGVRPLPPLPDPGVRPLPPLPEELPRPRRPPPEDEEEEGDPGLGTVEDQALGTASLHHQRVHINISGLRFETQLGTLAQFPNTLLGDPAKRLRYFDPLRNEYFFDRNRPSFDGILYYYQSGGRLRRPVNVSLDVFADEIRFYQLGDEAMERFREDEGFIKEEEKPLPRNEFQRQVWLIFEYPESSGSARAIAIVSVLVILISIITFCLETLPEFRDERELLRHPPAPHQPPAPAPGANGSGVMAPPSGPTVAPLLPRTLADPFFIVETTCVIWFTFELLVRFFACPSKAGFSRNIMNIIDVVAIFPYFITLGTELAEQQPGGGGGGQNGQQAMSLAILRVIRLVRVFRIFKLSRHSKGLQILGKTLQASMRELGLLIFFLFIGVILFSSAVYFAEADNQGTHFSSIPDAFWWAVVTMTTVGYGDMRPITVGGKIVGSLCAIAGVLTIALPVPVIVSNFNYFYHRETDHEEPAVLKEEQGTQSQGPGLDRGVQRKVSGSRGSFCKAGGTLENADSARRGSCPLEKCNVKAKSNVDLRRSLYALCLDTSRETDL

Broadly, the pIC50 is the IC50 on a negative log10 scale, so that one unit is a factor of ten. On to `O=c1ccc2c(OCCCCOc3ccccc3)c3ccoc3cc2o1` [PAP-1], for which the pIC50 at Kv1.1 (Table 4, read-out: IC50 Kv1.1) is 7.19; on Kv1.5, 7.35; at Kv1.4, 6.77; at Kv1.2 (Table 4, read-out: IC50 Kv1.2), 6.60; on KCa3.1, 5.00; at Kv1.6 it was 4.51.
Consider `O=c1ccc2c(OCCCCc3ccccc3)c3ccoc3cc2o1` [Psora-4], for which the pIC50 at Kv1.6 was 7.21.
Regarding Charybdotoxin [Charybdotoxin (ChTX)], the pIC50 at Kv2.1 was below 5.70; at Kv1.3 (Table 3, read-out: IC50 Values of Kv1.3 ion channel modulating agent), 9.72; on Kv1.3 (setting [2]), 9.72; on Kv1.1 (setting [3]), 5.82; on Shaker (read-out: IC50, channel Shaker) it was 6.64; at Kv1.2 (setting [4]), 7.85.
With hanatoxin [HaTx], the pIC50 was 6.97 on Kv2.1; below 6.30 on Kv1.3 (setting [2]); below 6.30 at Kv1.1 (setting [3]); 6.99 in data set [1]; below 5.70 at Kv1.2 (setting [4]). Further, the “IC50, channel Shaker” value at Shaker (result in words) was “Weak”.
